Results from patent US11186581B2, “2-(1,3-dimethyl-2,6-dioxo-1,2,3,6-tetrahydro-7H-purin-7-yl)-N-(6-(2-hydroxyphenyl)pyridazin-3-yl)acetamide as a Wnt pathway modulator” (Agency for Science, Technology and Research, priority 2017, dated 2021).
pIC50: −log10 of the molar value. “And” between values parts separate entries of the source, which are not always exact repeats. Equal values may be shown once. Read-outs that look alike come from different tables or passages of the source.

Experiments:
HEK293-STF3A cells = test: STF3A assay (Wnt reporter luciferase); format: cell-based; settings: Homo sapiens, 24 h, 1 day of treatment, read-out: IC50 activities on STF3A cells
Experimental: HEK293-STF cell line was modified from Human embryonic kidney cell line HEK293 transfected with the STF reporter. HEK293-STF3 A cell line was further modified from HEK293-STF cell line to express Wnt3A. This cell line was used to identify compounds that regulate either early or late signalling components of the Wnt pathway. L-Wnt3 A (ATCC, #CRL-2647) cell line was used for providing Wnt3 A conditioned media. The three cell lines were grown in DMEM (Dulbecco's Modified Eagle Medium) with 10% FBS (fetal bovine serum) incubated in 37° C. with 5% CO2.
2×10^4 HEK293-STF3A cells in 75 μl culture media were seeded in each well of white 96 well plates (Greiner #655098) and incubated overnight at 37° C. 25 μl serially diluted compound was added to the cells to give final concentration of 50 μM to 1.5 nM. After 1 day of treatment, 100 μl of Steady-Glo® Luciferase Assay reagent (#E2520, Promega) was added to each well and incubated for 10 minutes at room temperature. Luminescence was measured using Tecan Safire2® plate reader.

[1] = Plasma pharmacokinetics after single intravenous and oral dose; format: in vivo, male BALB/c mice
Experimental: The objective of this study was to investigate the plasma pharmacokinetics of Compound 1 in male BALB/c mice following a single intravenous and oral dose administration. A group of eighteen male mice were divided in to two groups as Group 1 and Group 2 with nine mice in each group.
Animals in Group 1 were administered intravenously with Compound 1 solution formulation in 7.5% NMP, 5% Solutol HS-15 and 87.5% normal Saline at a dose of 1 mg/kg.
Animals in Group 2 were administered orally with Compound 1 solution formulation in 7.5% NMP, 5% Solutol HS-15 and 87.5% normal Saline at a dose of 5 mg/kg.
Blood samples (approximately 60 μL) were collected under light isoflurane anesthesia from retro orbital plexus at predose, 0.08, 0.25, 0.5, 1, 2, 4, 8 and 24 hr (IV) and predose, 0.25, 0.5, 1, 2, 4, 6, 8 and 24 hr (PO). During each sampling point, blood samples were collected in labeled pre-chilled tubes containing K2EDTA (20% K2EDTA solution) as an anticoagulant and protease inhibitor (10 μL of 10× solution/100 μL of blood). Low temperature was maintained till storage of plasma at −70° C. Plasma samples were separated by centrifugation of whole blood and stored below −70° C. until bioanalysis. All samples were processed for analysis by protein precipitation using acetonitrile (ACN) and analyzed with fit-for-purpose LC/MS/MS method (Lower limit of quantitation (LLOQ: 1.02 ng/mL). Pharmacokinetic parameters were calculated using the non-compartmental analysis tool of Phoenix WinNonlin® (Version 6.3). The overall pharmacokinetic parameters are summarized below:
The objective of the study is to determine the plasma pharmacokinetics of Compound 1 in male BALB/c mice following a single intravenous (1 mg/kg) and oral (5 mg/kg) administration in presence of a protease inhibitor.
A group of eighteen male mice were divided in to two groups as Group 1 and Group 2 with nine mice in each group. Animals in Group 1 were administered intravenously with Compound 1 solution formulation in 7.5% NMP, 5% Solutol HS-15 and 87.5% normal Saline at a dose of 1 mg/kg. Animals in Group 2 were administered orally with Compound 1 solution formulation in 7.5% NMP, 5% Solutol HS and 87.5% normal Saline at a dose of 5 mg/kg.
The dosing volume administered was 5 mL/kg for intravenous and 10 mL/kg for oral administration.
Blood samples (approximately 60 μL) were collected from retro-orbital plexus of three mice at each time point [predose, 0.08, 0.25, 0.5, 1, 2, 4, 8 and 24 hr (IV) and predose, 0.25, 0.5, 1, 2, 4, 6, 8 and 24 hr (PO)]. During each sampling point, blood samples were collected in labeled pre-chilled tubes containing K2EDTA (20% K2EDTA solution) as an anticoagulant and protease inhibitor (10 μL of 10× solution/100 μL of blood). Low temperature was maintained till storage of plasma at −70° C. Plasma was immediately harvested from the blood by centrifugation at 4000 rpm for 10 min at 4±2° C. and stored below −70° C. until bioanalysis. Preparation of protease inhibitor solution: One tablet of sigmaFAST (Product Code: 58820) was reconstituted into 10 mL of Milli-Q water to prepare 10× solution.
Concentrations of Compound 1 in mouse plasma samples were determined by fit-for-purpose LC-MS/MS method. The sample processing and extraction procedure, chromatographic and mass spectrometric conditions are provided below:
A 25 μL of study sample (DF was applied for few samples) or spiked plasma calibration standard was added to individual pre-labeled micro-centrifuge tubes followed by 100 μL of internal standard prepared in acetonitrile (Glipizide, 500 ng/mL) was added except for blank, where 100 μL of acetonitrile was added. Samples were vortexed for 5 minutes. Samples were centrifuged for 10 minutes at a speed of 4000 rpm at 4° C. Following centrifugation, 100 μL of clear supernatant was transferred in 96 well plates and analyzed using LC-MS/MS.
Non-Compartmental-Analysis tool of Phoenix WinNonlin® (Version 6.3) was used to assess the pharmacokinetic parameters. […]

Vss relative to normal volume of total body water (0.7 L/kg) ([1]; IV 1 mg/kg): ~2 fold
Plasma concentration, individual animals ([1]; IV 1 mg/kg, 0.25 hr, 1 mg/kg): 1052.34 ng/mL and 1048.27 ng/mL
Plasma concentration, individual animals ([1]; IV 1 mg/kg, 0.5 hr, 1 mg/kg): 899.26 ng/mL and 894.59 ng/mL
Plasma concentration, individual animals ([1]; IV 1 mg/kg, 2 hr, 1 mg/kg): 60.16 ng/mL and 49.49 ng/mL
Plasma concentration, individual animals ([1]; IV 1 mg/kg, 4 hr, 1 mg/kg): 37.94 ng/mL and 27.10 ng/mL
Plasma concentration, individual animals ([1]; IV 1 mg/kg, 24 hr, below LLOQ considered zero, 1 mg/kg): 1.36 ng/mL and 1.10 ng/mL and 0.00 ng/mL
CL (expressed as CLf) ([1]; PO 5 mg/kg): 26.74 mL/min/kg
Vss (expressed as Vz) ([1]; PO 5 mg/kg): 7.55 L/kg
Time up to which plasma concentrations were quantifiable ([1]; PO 5 mg/kg, 2 animals out of 3, LLOQ 1.02 ng/mL): up to 24 hr
Plasma concentration, individual animals ([1]; PO 5 mg/kg, 0.25 hr, 5 mg/kg): 2450.80 ng/mL and 1426.54 ng/mL
Plasma concentration, individual animals ([1]; PO 5 mg/kg, 1 hr, 5 mg/kg): 474.33 ng/mL and 433.52 ng/mL
Plasma concentration, individual animals ([1]; PO 5 mg/kg, 2 hr, 5 mg/kg): 331.78 ng/mL and 365.08 ng/mL
Plasma concentration, individual animals ([1]; PO 5 mg/kg, 6 hr, 5 mg/kg): 110.77 ng/mL and 81.54 ng/mL
Plasma concentration, individual animals ([1]; PO 5 mg/kg, 8 hr, 5 mg/kg): 41.28 ng/mL and 53.22 ng/mL
Plasma concentration, individual animals ([1]; PO 5 mg/kg, 24 hr, below LLOQ considered zero, 5 mg/kg): 0.00 ng/mL and 1.28 ng/mL and 2.31 ng/mL
concentration at 0.08 hr ([1]; male, BALB/c, mouse, plasma, iv, 1 mg/kg, IV 1 mg/kg, 0.08 hr): 2000 ng/mL
concentration at 0.25 hr ([1]; male, BALB/c, mouse, plasma, iv, 1 mg/kg, IV 1 mg/kg, 0.25 hr, read-out: Plasma concentration, Mean): 1020 ng/mL
concentration at 0.25 hr ([1]; male, BALB/c, mouse, plasma, iv, 1 mg/kg, IV 1 mg/kg, 0.25 hr, read-out: Plasma concentration, individual animals): 948 ng/mL
concentration at 0.5 hr ([1]; male, BALB/c, mouse, plasma, iv, 1 mg/kg, IV 1 mg/kg, 0.5 hr, read-out: Plasma concentration, Mean): 915 ng/mL
concentration at 0.5 hr ([1]; male, BALB/c, mouse, plasma, iv, 1 mg/kg, IV 1 mg/kg, 0.5 hr, read-out: Plasma concentration, individual animals): 952 ng/mL
concentration at 1 hr ([1]; male, BALB/c, mouse, plasma, iv, 1 mg/kg, IV 1 mg/kg, 1 hr, read-out: Plasma concentration, Mean): 306 ng/mL
concentration at 2 hr ([1]; male, BALB/c, mouse, plasma, iv, 1 mg/kg, IV 1 mg/kg, 2 hr, read-out: Plasma concentration, Mean): 50.7 ng/mL
concentration at 2 hr ([1]; male, BALB/c, mouse, plasma, iv, 1 mg/kg, IV 1 mg/kg, 2 hr, read-out: Plasma concentration, individual animals): 42.5 ng/mL
Structure (SMILES): Cn1c(=O)c2c(ncn2CC(=O)Nc2ccc(-c3ccccc3O)nn2)n(C)c1=O [Compound 1, 2-(1,3-dimethyl-2,6-dioxo-1,2,3,6-tetrahydro-7H-purin-7-yl)-N-(6-(2-hydroxyphenyl)pyridazin-3-yl)acetamide]
pIC50 (HEK293-STF3A cells): 8.05
Plasma concentration, individual animals ([1]; IV 1 mg/kg, 0.08 hr, 1 mg/kg): 1220.50 ng/mL and 2541.20 ng/mL and 2233.92 ng/mL
Plasma concentration, individual animals ([1]; IV 1 mg/kg, 1 hr, 1 mg/kg): 151.52 ng/mL and 496.44 ng/mL and 268.90 ng/mL
Plasma concentration, individual animals ([1]; IV 1 mg/kg, 8 hr, 1 mg/kg): 6.59 ng/mL and 27.95 ng/mL and 8.94 ng/mL
Plasma concentration, individual animals ([1]; PO 5 mg/kg, 0.5 hr, 5 mg/kg): 2167.46 ng/mL and 1898.77 ng/mL and 1070.15 ng/mL
Plasma concentration, individual animals ([1]; PO 5 mg/kg, 4 hr, 5 mg/kg): 86.92 ng/mL and 503.47 ng/mL and 59.61 ng/mL
